Results on 14 compounds are retold here after patent US20260265247A1, “MULTI-KINASE INHIBITORS, COMPOSITIONS THEREOF, AND METHODS OF USING THE SAME” (BIOFRONT LTD, priority 2022, published 2026).

Each structure is given as a SMILES string.

Broadly, the IC50 is the concentration at which inhibition is half-maximal.

Type in all cases: biochemical
The target of one assay is T1, Aurora A (Homo sapiens, UniProt O14965).
T1 construct: purchased Carna 05-101
T1 sequence (O14965 1-403): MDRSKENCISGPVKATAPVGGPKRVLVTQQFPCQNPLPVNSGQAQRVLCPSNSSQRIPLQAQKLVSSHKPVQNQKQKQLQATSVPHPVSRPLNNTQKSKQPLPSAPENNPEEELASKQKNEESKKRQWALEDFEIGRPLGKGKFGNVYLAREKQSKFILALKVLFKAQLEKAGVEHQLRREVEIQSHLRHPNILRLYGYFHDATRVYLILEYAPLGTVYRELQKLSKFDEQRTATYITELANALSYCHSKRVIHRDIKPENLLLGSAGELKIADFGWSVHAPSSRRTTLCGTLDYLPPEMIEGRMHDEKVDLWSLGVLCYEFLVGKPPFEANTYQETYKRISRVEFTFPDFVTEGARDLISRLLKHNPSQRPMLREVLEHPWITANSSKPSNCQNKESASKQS
In words: Aurora A Enzymatic Assay. As to conditions: enzyme inhibition; peptide 21 3 μM, ATP 14.58 μM. The procedure:
(§1) The compound was dissolved in 100% DMSO at the concentration of 10 mM. The Aurora A protein was purchased from Carna (05-101). 10 μL per well of 2.5× Aurora A protein was added to assay plate containing the test compound, centrifuged at 1000 rpm for 1 minute, and then incubated at 25° C. for 10 minutes. Peptide 21 was purchased from GL Biochem (116370) and ATP was purchased from Promega (V9102). The two were added 15 μL per well mixture of 1.67× peptide 21 (final conc. is 3 μM) and ATP (final conc. is 14.58 μM), centrifuged at 1000 rpm for 1 minute, then incubated at 25° C. for 40 minutes. Then added 30 μL of stop buffer (100 mM HEPES pH7.5, 0.015% Brij-35, 0.2% Coating Reagent 3, 50 mM EDTA) to the assay plate and centrifuged at 1000 rpm for 1 minute. the product was determined. Based on the results, the IC50 value of the compound was calculated.

The next assay has as its target T2, FLT3-ITD (Homo sapiens, UniProt P36888).
T2 sequence (P36888 1-993): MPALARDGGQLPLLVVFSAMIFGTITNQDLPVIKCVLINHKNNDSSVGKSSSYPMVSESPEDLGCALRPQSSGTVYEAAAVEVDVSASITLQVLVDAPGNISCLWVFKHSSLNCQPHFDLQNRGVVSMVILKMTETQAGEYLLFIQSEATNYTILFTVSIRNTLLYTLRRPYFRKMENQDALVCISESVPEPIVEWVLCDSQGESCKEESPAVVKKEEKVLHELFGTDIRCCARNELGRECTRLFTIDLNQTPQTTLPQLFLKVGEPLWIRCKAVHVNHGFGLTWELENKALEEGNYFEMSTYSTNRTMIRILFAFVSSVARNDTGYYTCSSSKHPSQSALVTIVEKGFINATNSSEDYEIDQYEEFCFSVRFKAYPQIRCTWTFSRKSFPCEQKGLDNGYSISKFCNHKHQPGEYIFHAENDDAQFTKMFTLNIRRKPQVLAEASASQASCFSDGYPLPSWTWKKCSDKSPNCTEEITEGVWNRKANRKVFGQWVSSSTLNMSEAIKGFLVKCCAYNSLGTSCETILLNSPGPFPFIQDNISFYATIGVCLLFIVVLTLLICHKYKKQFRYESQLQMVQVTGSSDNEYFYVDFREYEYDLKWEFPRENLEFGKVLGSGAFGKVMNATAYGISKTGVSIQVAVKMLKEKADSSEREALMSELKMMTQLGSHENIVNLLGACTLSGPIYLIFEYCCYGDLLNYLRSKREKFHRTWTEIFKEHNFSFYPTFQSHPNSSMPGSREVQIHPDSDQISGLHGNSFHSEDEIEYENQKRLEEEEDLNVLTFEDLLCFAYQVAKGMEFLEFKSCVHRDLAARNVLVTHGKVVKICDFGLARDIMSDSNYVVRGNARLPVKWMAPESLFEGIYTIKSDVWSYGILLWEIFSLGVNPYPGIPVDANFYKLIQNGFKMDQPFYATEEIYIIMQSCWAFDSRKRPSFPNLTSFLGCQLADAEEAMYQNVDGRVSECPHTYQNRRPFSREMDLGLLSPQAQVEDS
Put plainly: FLT3-ITD Enzymatic Assay. Conditions: enzyme inhibition; peptide 2 3 μM, ATP 97.2 μM. The procedure:
as §1, with “FLT3-ITD” for “Aurora A”, “Invitrogen (PV6191).” for “Carna (05-101).”, “2” for “21”, “(112394)” for “(116370)”, “97.2” for “14.58”

The target in a further assay is T3, HPK1 (Homo sapiens, UniProt Q92918).
T3 construct: purchased Signal Chem M23-11G-10
T3 sequence (Q92918 1-346 limits assumed): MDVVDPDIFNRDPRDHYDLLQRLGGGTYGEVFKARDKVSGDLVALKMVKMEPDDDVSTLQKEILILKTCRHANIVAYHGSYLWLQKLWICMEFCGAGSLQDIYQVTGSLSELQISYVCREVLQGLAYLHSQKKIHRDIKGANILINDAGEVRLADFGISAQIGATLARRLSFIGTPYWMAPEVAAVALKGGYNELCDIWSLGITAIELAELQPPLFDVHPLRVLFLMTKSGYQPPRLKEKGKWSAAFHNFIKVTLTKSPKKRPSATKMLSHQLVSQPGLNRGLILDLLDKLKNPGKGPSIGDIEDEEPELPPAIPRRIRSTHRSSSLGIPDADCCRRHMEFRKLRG
In words: HPK1 Enzymatic Assay (ADP-Glo). Conditions: enzyme inhibition; MBP substrate, ATP 20 μM mixture. The procedure: The compound was dissolved in 100% DMSO at the concentration of 10 mM. The HPK1 protein was purchased from Signal Chem (M23-11G-10). 2.5 μL per well of 2× HPK1 protein was added to assay plate containing the test compound, centrifuged at 1500 rpm for 1 minute, and then incubated at 25° C. for 60 minutes. MBP protein was purchased from Signal Chem (M42-51N) and ATP was purchased from Promega (V9102). The two were added 2.5 μL per well mixture of 2× MBP (0.2 ug/ul) and ATP (20 μM), centrifuged at 1500 rpm for 1 minute, then incubated at 25° C. for 60 minutes. Then added 5 μL of ADP-Glo from Promega (V9102) to the assay plate and depleted the unconsumed ATP for 60 minutes. Then centrifuged at 1500 rpm for 1 minute and incubated at 25° C. for 60 minutes. Finally, 10 μL of the kinase assay reagent from Promega (V9102) was added to the assay plate to convert ADP to ATP, centrifuged at 1500 rpm for 1 minute, incubate at 25° C. for 40 minutes. After 40 minutes incubation, the fluorescence was determined. Based on the results, the IC50 value of the compound was calculated.
(In general: ADP-Glo first removes unused ATP, then detects ADP through luciferase.)

Consider `CCc1c[nH]c2ncc(-c3cccc(-n4cn[nH]c4=O)c3)c(Cl)c12` [Compound 1, 4-(3-(4-chloro-3-ethyl-1H-pyrrolo[2,3-b]pyridin-5-yl)phenyl)-2,4-dihydro-3H-1,2,4-triazol-3-one], for which the half-maximal inhibitory concentration (IC50) at Aurora A worked out at 35.8 nM; against FLT3-ITD, 37.8 nM; on HPK1, 20.6 nM.

With `O=c1[nH]ncn1-c1cccc(-c2cnc3[nH]cc(C4CC4)c3c2Cl)c1` [Compound 2, 4-(3-(4-chloro-3-cyclopropyl-1H-pyrrolo[2,3-b]pyridin-5-yl)phenyl)-2,4-dihydro-3H-1,2,4-triazol-3-one], the values for the 50% inhibitory concentration (IC50) on Aurora A, against FLT3-ITD and at HPK1 were 53.6 nM, 23.7 nM and 18.2 nM, respectively.

Consider `CCc1c[nH]c2ncc(-c3cccc(N4CCNC4=O)c3)c(Cl)c12` [Compound 3], for which the concentration for half-maximal inhibition (IC50) at Aurora A is 13.3 nM; against FLT3-ITD, 22.5 nM; at HPK1 it was 25.7 nM.

In the case of `O=C1NCCN1c1cccc(-c2cnc3[nH]cc(C4CC4)c3c2Cl)c1` [Compound 4], the figures for the half-maximal inhibitory concentration (IC50) against Aurora A, against FLT3-ITD and on HPK1 were 22.9 nM, 14.6 nM and 27.6 nM, respectively.

In the case of `O=C1NCCCN1c1nc(-c2cnc3[nH]cc(C4CC4)c3c2Cl)cs1` [Compound 5], the IC50 against Aurora A was 3.1 nM; against FLT3-ITD, 2.2 nM; at HPK1, 18.9 nM.

In the case of `O=C1NCCN1c1cccc(-c2cnc3[nH]cc(C4CC4)c3c2Cl)n1` [Compound 6, 1-(6-(4-chloro-3-cyclopropyl-1H-pyrrolo[2,3-b]pyridin-5-yl)pyridin-2-yl) imidazolidin-2-one], the IC50 on Aurora A stood at 9.5 nM; against FLT3-ITD it was 6.1 nM; on HPK1 it was 14.3 nM.

Turning to `Cc1sc(N2CCCNC2=O)nc1-c1cnc2[nH]cc(C3CC3)c2c1Cl` [Compound 7, 1-(4-(4-chloro-3-cyclopropyl-1H-pyrrolo[2,3-b]pyridin-5-yl)-5-methylthiazol-2-yl)tetrahydropyrimidin-2(1H)-one], the IC50 at Aurora A came to 93.7 nM; against FLT3-ITD it was 4.2 nM; at HPK1, 126 nM.

As to `O=C1NCCCN1c1cccc(-c2cnc3[nH]cc(C4CC4)c3c2Cl)n1` [Compound 8, 1-(6-(4-chloro-3-cyclopropyl-1H-pyrrolo[2,3-b]pyridin-5-yl)pyridin-2-yl)tetrahydropyrimidin-2(1H)-one], the figures for the IC50 at Aurora A, against FLT3-ITD and on HPK1 were 7.8 nM, 6 nM and 2.4 nM, respectively.

In the case of `CCc1c[nH]c2ncc(-c3cccc(N4CCCNC4=O)c3)c(Cl)c12` [Compound 9], the IC50 against Aurora A was 172 nM; at FLT3-ITD it was 0.8 nM; on HPK1, 2 nM.

For the compound `O=C1NC2(CCNC2)C(=O)N1c1cccc(-c2cnc3[nH]cc(C4CC4)c3c2Cl)c1` (stereo not drawn) [Compound 10, 3-(3-(4-chloro-3-cyclopropyl-1H-pyrrolo[2,3-b]pyridin-5-yl)phenyl)-1,3,7-triazaspiro[4.4]nonane-2,4-dione], the IC50 worked out at 27.4 nM on Aurora A, 11.6 nM at FLT3-ITD and 14.4 nM at HPK1.

Consider `O=C1NC2(CCNC2)CN1c1cccc(-c2cnc3[nH]cc(C4CC4)c3c2Cl)c1` (stereo not drawn) [Compound 11, 3-(3-(4-chloro-3-cyclopropyl-1H-pyrrolo[2,3-b]pyridin-5-yl)phenyl)-1,3,7-triazaspiro[4.4]nonan-2-one], for which the IC50 at Aurora A was 34.3 nM; on FLT3-ITD it was 22.3 nM; at HPK1, 15.7 nM.

For the compound `CCN(C)C(=O)c1c[nH]c2ncc(-c3cccc(N4CCCNC4=O)c3)c(Cl)c12` [Compound 12, 4-Chloro-N-ethyl-N-methyl-5-(3-(2-oxotetrahydropyrimidin-1 (2H)-yl)phenyl)-1H-pyrrolo[2,3-b]pyridine-3-carboxamide], the IC50 is more than 1000 nM against Aurora A, more than 990 nM against FLT3-ITD and more than 1000 nM on HPK1.

With `N#Cc1cc(-c2cnc3[nH]cc(C4CC4)c3c2Cl)cc(N2CCCNC2=O)c1` [Compound 13, 3-(4-chloro-3-cyclopropyl-1H-pyrrolo[2,3-b]pyridin-5-yl)-5-(2-oxotetrahydropyrimidin-1(2H)-yl)benzonitrile], the figures for the IC50 against Aurora A, at FLT3-ITD and on HPK1 were 78.9 nM, 93.6 nM and 827 nM, respectively.

As to `CS(=O)(=O)c1ccc(-c2cnc3[nH]cc(C4CC4)c3c2Cl)cc1N1CCCNC1=O` [Compound 14, 1-(5-(4-chloro-3-cyclopropyl-1H-pyrrolo[2,3-b]pyridin-5-yl)-2-(methylsulfonyl)phenyl)tetrahydropyrimidin-2(1H)-one], the IC50 against Aurora A is 7.1 nM; against FLT3-ITD, 37.4 nM; at HPK1, 151 nM.
